Experimental data reported in patent publication US20250011869A1, “TLR3 INHIBITORS FOR USE IN THE TREATMENT OF DISEASES ASSOCIATED WITH CARDIOVASCULAR CALCIFICATION” (priority 2021, published 2025).
“Also recorded” adds a separate entry of the source.

Tests used:
VICs = assay: Calcification assay of VICs in osteogenic medium (Alizarin Red S, alkaline phosphatase); assay type: cell-based, human; conditions: VICs in osteoblastic medium; for calcification / production of calcific nodules: Poly(I:C) 20 μg/mL or inhibitor 26 μM, Alizarin Red S
Method: For functional evaluation of osteoblastic activity, VICs were subjected to a calcification assay. Cells were cultured in osteogenic medium including 10 mmol/L beta-glycerophosphate, 10 nmol/L vitamin D3, and 10 nmol/L dexamethasone as described previously^4. The medium was changed every three days. Subsequently, supernatant was analyzed for alkaline phosphatase activity using the commercially available alkaline phosphatase assay kit (Abcam, Cambridge, UK). After careful rinsing with PBS, cells were fixed with 4% paraformaldehyde, washed with distilled water and Alizarin Red S staining solution (Alfa Aesar, Haverhill, MA) was added upon the fixed cells for 20 minutes at room temperature (RT). Imaging of the staining was performed using a Zeiss Axioplan 2 microscope (Zeiss, Oberkochen, Germany). Images were processed using Adobe Photoshop CS5.1 for Mac (Adobe Systems Inc., San Jose, CA, USA) and analyzed with ImageJ software (National Institutes of Health, Bethesda, […]).

zebrafish (Danio rerio) = assay: Zebrafish VitD3-induced calcification model; assay type: in vivo; conditions: larvae from 5 dpf, 5 days; for VitD3-induced calcification on co-incubation: VitD3 200 ng/mL with TLR3-inhibitor 5 μg/mL, opercle and all bone structures
Method: Fish were maintained and raised under standard husbandry conditions. VitD3 treatments were performed as previously described^26 with some minor modifications. Briefly: 15 animals (5 dpf) were pooled per 6-well pate and incubated for 5 days at 28° C. in 4 ml E3 medium containing 0.1% DMSO and different compounds as indicated. Larvae were fixed in 4% PFA overnight. Final concentration of compounds was 5 μg/mL for TLR3-inhibitor (Merck, Darmstadt, Germany) and 200 ng/mL VitD3 (Sigma, St. Louis, MO). Dilutions were generated from stock solutions with 10 mg/mL TLR3-INH and 200 mg/mL VitD3 in DMSO. Solutions containing VitD3 were changed every day. All experiments were done in duplicates. Alizarin Red stains were performed as described previously^27 with some minor modifications. After staining larvae were transferred to 100% glycerol and imaged. Area measurements were carried out as described^28.
Whole area: For each larva three independent ventral view images were taken with a Leica MZ16FA using standardized stereomicroscope settings. After each image the larvae were embedded anew. Data quantification was done with ImageJ. Standard white balance was used for background subtraction. Image were converted to greyscale (8 bit) and threshold was set to 225. The stained area excluding the otoliths was measured.
Opercula area: Larvae were imaged laterally from both sides using a standard microscope setting. Area measurements were performed as described above.

[1] = biological target: T1, recombinant human TLR3 ectodomain (huTLR3-ECD), residues 27-700, C-terminal 6x His tag (human, UniProt O15455 27-700); assay: size-exclusion chromatography of the mixed proteins, fractions immunoblotted
T1 construct: also called purified TLR3 ectodomain; hTLR3-ECD
Method: To obtain core protein of bovine biglycan, purchased biglycan (Sigma, St. Louis, MO) was incubated with Chondroitinase ABC (Merck, Darmstadt, Germany) at 37° C. for 2 h. Digestion of chondroitin sulfate was verified by electrophoresis and subsequent Coomassie-staining. To 185 μl of digested BGN (0.5 mg/ml) 15 μl of TLR3 (1 mg/ml) was added and incubated on ice for 30 min. The sample was subjected to size exclusion chromatography (Supedex200 increased 10/300 GL column) using 20 mM HEPES pH7.5 100 mM NaCl as running buffer. Fractions were collected and analyzed by Immunoblotting as described above.

TLR3 = TLR3 (Homo sapiens, UniProt O15455); assay: HEK293 hTLR3 reporter cell assay (TLR3/ISRE LUCPorter, luminometer); assay type: cell-based; conditions: putative ligands at increasing concentrations, 24 h (biglycan 5, 10, 20 μg/ml)
Method: All cells were cultivated under standard conditions (37° C., supplied with 5% CO2). Passaging of the cells was performed at 70-90% confluency, and cells were only used until passage 7 as described previously^6. Polyinosinic: polycytidylic acid (Poly(I:C); Invivogen, San Diego, CA) was used to stimulate cells at a concentration of either 20 μg/mL or 5 μg/ml, depending on the assay. For blockade of TLR3, the commercially available dsRNA/TLR3 inhibitor ((R)-2-(3-Chloro-6-fluorobenzo [b] thiophene-2-carboxamido)-3-phenyl-propanoic acid) was used (Merck, Darmstadt, Germany) at a concentration of 1 μg/ml as described previously^1,7. LY294002 (Invivogen, San Diego, CA), a PI3K inhibitor, was used at a concentration of 10 μM. For blockade of IFNAR1, a specific blocking antibody (Invitrogen, Carlsbad, CA) was used at a concentration of 4 μg/ml. A stable HEK (human embryonic kidney) reporter cell line (TLR3/ISRE LUCPorter; Imgenex, USA) was purchased for luminometer assay experiments. Cells were cultivated according to the manufacturer's protocol in DMEM with 4.5 g/L glucose (Lonza, Switzerland), 10% FCS (Sigma, St. Louis, MO), penicillin/streptomycin, and 4 mM L-glutamine and […] puromycin (Gibco, USA) as selection agent. Reporter experiments were performed as described previously^8. […]

## O=C(N[C@H](Cc1ccccc1)C(=O)O)c1sc2cc(F)ccc2c1Cl [TLR3 inhibitor, (R)-2-(3-Chloro-6-fluorobenzo [b]thiophene-2-carboxamido)-3-phenyl-propanoic acid]
VICs
  calcification / production of calcific nodules: reduced calcification
VICs; listed as dsRNA/TLR3 complex inhibitor
  calcification / production of calcific nodules: reduced
VICs; supernatant
  alkaline phosphatase (ALP) activity: reduced
Zebrafish (Danio rerio)
  VitD3-induced calcification on co-incubation: reduced calcification; also recorded: abolished
Zebrafish (Danio rerio); listed as Tlr3 inhibitor
  VitD3-induced calcification on co-incubation: severely impaired calcification of the skeleton

## C=C1CC[C@H](O)C/C1=C/C=C1\CCC[C@]2(C)[C@@H]([C@H](C)CCCC(C)C)CC[C@@H]12 [VitD3, vitamin D3]
Zebrafish (Danio rerio); VitD3 200 ng/mL alone
  calcification of landmark bones: early and strong calcification of landmark bones

B1: core protein of bovine biglycan (purchased biglycan, Sigma, digested with Chondroitinase ABC) (ligand, UniProt P21809 38-369, looked up)
chain: DEEASGAETTSGIPDLDSLPPTYSAMCPFGCHCHLRVVQCSDLGLKAVPKEISPDTTLLDLQNNDISELRKDDFKGLQHLYALVLVNNKISKIHEKAFSPLRKLQKLYISKNHLVEIPPNLPSSLVELRIHDNRIRKVPKGVFSGLRNMNCIEMGGNPLENSGFEPGAFDGLKLNYLRISEAKLTGIPKDLPETLNELHLDHNKIQAIELEDLLRYSKLYRLGLGHNQIRMIENGSLSFLPTLRELHLDNNKLSRVPAGLPDLKLLQVVYLHTNNITKVGVNDFCPVGFGVKRAYYNGISLFNNPVPYWEVQPATFRCVTDRLAIQFGNYKK
modifications: chondroitin sulfate removed by Chondroitinase ABC digestion
notes: also called digested BGN; BGN
[1]
  binding result: binds

B2: rhBGN: BGN lacking chondroitin sulfate chains (protein)
chain (part 1 of 2): HHHHHH
chain (part 2 of 2): DEEASGADTSGVLDPDSVTPTYSAMCPFGCHCHLRVVQCSDLGLKSVPKEISPDTTLLDLQNNDISELRKDDFKGLQHLYALVLVNNKISKIHEKAFSPLRKLQKLYISKNHLVEIPPNLPSSLVELRIHDNRIRKVPKGVFSGLRNMNCIEMGGNPLENSGFEPGAFDGLKLNYLRISEAKLTGIPKDLPETLNELHLDHNKIQAIELEDLLRYSKLYRLGLGHNQIRMIENGSLSFLPTLRELHLDNNKLARVPSGLPDLKLLQVVYLHSNNITKVGVNDFCPMGFGVKRAYYNGISLFNNPVPYWEVQPATFRCVTDRLAIQFGNYKK
modifications: left off: small tags and cut ends
notes: BGN lacking chondroitin sulfate chains
TLR3
  activation of TLR3 reporter cells: did not activate TLR3
